Several values for one entry are separate records, joined by “and”; a condition that tells them apart may be missing. Equal entries are not always repeated.

Drawing on ChEMBL document CHEMBL1137264, “Carbonic anhydrase inhibitors. Inhibition of the cytosolic human isozymes I and II, and the transmembrane, tumor-associated isozymes IX and XII with substituted aromatic sulfonamides activatable in hypoxic tumors” (Bioorg Med Chem Lett, 2006), this text covers Ki for 19 compounds.

Test [1] concerns the target Carbonic anhydrase 1 (Homo sapiens, UniProt P00915).
Description: Inhibition of human cloned CA1 by CO2 hydration assay
Test [2] addresses Carbonic anhydrase 12 (Homo sapiens, UniProt O43570).
Description: Inhibition of human cloned CA12 catalytic domain by CO2 hydration assay
The target in test [3] is Carbonic anhydrase 9 (Homo sapiens, UniProt Q16790).
Description: Inhibition of human cloned CA9 catalytic domain by CO2 hydration assay
For test [4], the target named is Carbonic anhydrase 2 (Homo sapiens, UniProt P00918).
Description: Inhibition of human cloned CA2 by CO2 hydration assay

Carbonic anhydrase 12, sequence (O43570 whole entry): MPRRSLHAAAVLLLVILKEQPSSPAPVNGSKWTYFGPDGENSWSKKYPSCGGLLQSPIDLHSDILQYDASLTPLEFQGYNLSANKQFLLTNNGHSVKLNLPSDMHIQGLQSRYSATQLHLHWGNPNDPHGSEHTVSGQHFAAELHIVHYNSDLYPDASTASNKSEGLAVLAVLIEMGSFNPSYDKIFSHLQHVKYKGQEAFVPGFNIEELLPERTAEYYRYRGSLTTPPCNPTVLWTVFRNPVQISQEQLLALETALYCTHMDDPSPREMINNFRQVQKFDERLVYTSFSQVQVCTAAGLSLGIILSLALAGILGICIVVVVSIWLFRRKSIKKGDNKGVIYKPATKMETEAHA
Carbonic anhydrase 1, sequence (P00915 whole entry): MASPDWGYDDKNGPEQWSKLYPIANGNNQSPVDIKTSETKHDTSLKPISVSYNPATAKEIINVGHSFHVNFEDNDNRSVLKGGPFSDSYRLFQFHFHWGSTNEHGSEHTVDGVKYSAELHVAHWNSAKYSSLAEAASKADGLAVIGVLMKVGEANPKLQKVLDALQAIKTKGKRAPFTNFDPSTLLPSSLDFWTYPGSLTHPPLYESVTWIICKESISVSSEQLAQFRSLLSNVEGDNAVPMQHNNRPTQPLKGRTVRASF

For the compound `COC(=O)CS(=O)(=O)c1cc(Cl)c(C)cc1S(N)(=O)=O`, the Ki in test [1] came to 5100 nM; in test [2], 1350 nM; in test [3], 1840 nM; in test [4] it was 9.6 nM.
Taken in the same sequence, the figures for `NS(=O)(=O)c1cc(C(=O)N2CCCC2)c(Cl)cc1SSc1cc(Cl)c(C(=O)N2CCCC2)cc1S(N)(=O)=O` were 22100 nM, 190 nM, 766 nM and 4620 nM.
`Cc1cc(S(N)(=O)=O)c(S(=O)(=O)C(C)C(=O)NN)cc1Cl` (stereo unspecified): the Ki in test [1] came to 14200 nM; in test [2] it was 2420 nM; in test [3] it was 3420 nM; in test [4] it was 536 nM.
Taken in the same sequence, the figures for `NS(=O)(=O)c1cc(C(=O)NCc2ccccc2)c(Cl)cc1S` were 19700 nM, 35.6 nM, 40.9 nM and 19.9 nM.
The matching figures for `Cc1cc(S(N)(=O)=O)c(S(=O)(=O)CC(=O)O)cc1Cl`: 11600 nM, 2400 nM, 5440 nM and 547 nM.
The matching figures for `Cc1cc(S(N)(=O)=O)c(S/C(=N\NS(=O)(=O)c2ccccc2)c2ccccc2)cc1Cl`: 113000 nM, greater than 10000 nM, greater than 10000 nM and greater than 10000 nM.
Regarding `NS(=O)(=O)c1cc(C(=O)NCc2ccccc2)c(Cl)cc1SSc1cc(Cl)c(C(=O)NCc2ccccc2)cc1S(N)(=O)=O`, the Ki was 82100 nM in test [1], greater than 10000 nM in test [2], greater than 10000 nM in test [3] and 6100 nM in test [4].
Regarding `NS(=O)(=O)c1cc2c(cc1SSc1cc3c(cc1S(N)(=O)=O)S(=O)(=O)NCN3)NCNS2(=O)=O`, the Ki in test [1] is 310000 nM; in test [2], 1970 nM; in test [3], 780 nM; in test [4] it was greater than 10000 nM.
As for `NS(=O)(=O)c1cc2c(cc1S)NCNS2(=O)=O`, the Ki in test [1] is 7500 nM and 7300 nM; in test [2], 117 nM and 118 nM; in test [3], 113 nM and 115 nM; in test [4], 8.6 nM and 8.7 nM.
Take `CSc1cc2c(cc1S(N)(=O)=O)S(=O)(=O)NCN2`: the Ki in test [1] was determined as 10900 nM; in test [2], 108 nM; in test [3], 139 nM; in test [4], 3800 nM.
The matching figures for `CCOC(=O)c1cc(S(N)(=O)=O)c(S)cc1Cl`: 6400 nM, 53 nM, 56 nM and 18.5 nM.
The matching figures for `CC/C(=N/Nc1ccc([N+](=O)[O-])cc1)Sc1cc(Cl)c(C)cc1S(N)(=O)=O`: 220000 nM, greater than 10000 nM, greater than 10000 nM and greater than 10000 nM.
As for `COC(=O)C(C)S(=O)(=O)c1cc(Cl)c(C)cc1S(N)(=O)=O` (stereo unspecified), the inhibition constant Ki in test [1] amounted to 5800 nM; in test [2], 1100 nM; in test [3] it was 1610 nM; in test [4], 244 nM.
The matching figures for `CCOC(=O)c1cc(S(N)(=O)=O)c(SSc2cc(Cl)c(C(=O)OCC)cc2S(N)(=O)=O)cc1Cl`: 7800 nM, greater than 10000 nM, greater than 10000 nM and 5570 nM.
As for `Cc1cc(S(N)(=O)=O)c(S(=O)(=O)C(C)C(=O)O)cc1Cl` (stereo unspecified), the Ki came out at 27300 nM in test [1], 3050 nM in test [2], 5000 nM in test [3] and 806 nM in test [4].
The matching figures for `Cc1cc(S(N)(=O)=O)c(S/C(=N\Nc2ccc([N+](=O)[O-])cc2)c2ccccc2)cc1Cl`: 379000 nM, greater than 10000 nM, greater than 10000 nM and greater than 10000 nM.
In the case of `CC(C)CSc1cc2c(cc1S(N)(=O)=O)S(=O)(=O)NCN2`, the Ki in test [1] is 392000 nM; in test [2], 1000 nM; in test [3], greater than 10000 nM; in test [4], 2680 nM.
The matching figures for `NS(=O)(=O)c1cc(C(=O)N2CCCC2)c(Cl)cc1S`: 2600 nM, 20 nM, 14.5 nM and 19.6 nM.
Taken in the same sequence, the figures for `Cc1cc(S(N)(=O)=O)c(S(=O)(=O)CC(=O)NN)cc1Cl` were 7700 nM, 1390 nM, 1440 nM and 9.2 nM.
